From US20140249135A1, “PIM KINASE INHIBITORS AND METHODS OF THEIR USE” (NOVARTIS AG, priority 2007, published 2014) come the findings set out here.

The target in one assay is Pim1 kinase (Homo sapiens, UniProt P11309). Briefly: Pim1 ATP depletion assay.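 Also: Luciferase-luciferin luminescence readout of residual ATP after PIM1 transfers phosphate to a peptide substrate, 40 µM ATP added, reaction run to roughly half ATP consumption.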 It is filed as biochemical. As to conditions: Pim1 ATP depletion assay.
In another assay the target is Pim2 kinase (Homo sapiens, UniProt Q9P1W9). In words: Pim2 ATP depletion assay.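 Also: Luciferase-based luminescent readout of ATP remaining after PIM2 phosphorylates a BAD peptide, final 5 nM enzyme, 4 µM ATP, 10 µM peptide, 2.5% DMSO, run to roughly half ATP consumption.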 Type of assay: biochemical.
For a further assay, the target named is Pim3 kinase (Homo sapiens, UniProt Q86V86). Briefly: Pim3 ATP depletion assay. It is filed as biochemical.
A further assay concerns the target KDR kinase (Homo sapiens, UniProt P35968). In words: KDR AlphaScreen assay. As to conditions: KDR IC50 (μM).

One may read the IC50 as the point on the concentration scale where inhibition reaches its midpoint.

Like-named read-outs stand apart in the source and are kept apart here.

Pim2 kinase, sequence (Q9P1W9 whole entry): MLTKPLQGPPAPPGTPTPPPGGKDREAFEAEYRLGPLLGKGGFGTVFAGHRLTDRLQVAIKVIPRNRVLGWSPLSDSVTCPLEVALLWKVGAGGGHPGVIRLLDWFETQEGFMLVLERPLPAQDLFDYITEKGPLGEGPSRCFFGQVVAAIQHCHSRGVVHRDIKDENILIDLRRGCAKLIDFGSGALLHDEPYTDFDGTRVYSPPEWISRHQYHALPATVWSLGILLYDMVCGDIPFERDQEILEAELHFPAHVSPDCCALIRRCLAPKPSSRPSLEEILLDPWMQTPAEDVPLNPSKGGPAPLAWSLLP
Pim1 kinase, sequence (P11309 whole entry): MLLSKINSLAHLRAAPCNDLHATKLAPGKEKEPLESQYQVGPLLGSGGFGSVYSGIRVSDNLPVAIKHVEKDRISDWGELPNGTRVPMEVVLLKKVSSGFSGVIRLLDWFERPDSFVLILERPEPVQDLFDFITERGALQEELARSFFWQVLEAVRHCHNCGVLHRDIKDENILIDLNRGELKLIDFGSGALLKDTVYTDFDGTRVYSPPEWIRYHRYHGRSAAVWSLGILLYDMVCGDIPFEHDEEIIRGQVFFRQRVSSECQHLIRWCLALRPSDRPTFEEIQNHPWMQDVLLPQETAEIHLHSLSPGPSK
KDR kinase, sequence (P35968 20-1356): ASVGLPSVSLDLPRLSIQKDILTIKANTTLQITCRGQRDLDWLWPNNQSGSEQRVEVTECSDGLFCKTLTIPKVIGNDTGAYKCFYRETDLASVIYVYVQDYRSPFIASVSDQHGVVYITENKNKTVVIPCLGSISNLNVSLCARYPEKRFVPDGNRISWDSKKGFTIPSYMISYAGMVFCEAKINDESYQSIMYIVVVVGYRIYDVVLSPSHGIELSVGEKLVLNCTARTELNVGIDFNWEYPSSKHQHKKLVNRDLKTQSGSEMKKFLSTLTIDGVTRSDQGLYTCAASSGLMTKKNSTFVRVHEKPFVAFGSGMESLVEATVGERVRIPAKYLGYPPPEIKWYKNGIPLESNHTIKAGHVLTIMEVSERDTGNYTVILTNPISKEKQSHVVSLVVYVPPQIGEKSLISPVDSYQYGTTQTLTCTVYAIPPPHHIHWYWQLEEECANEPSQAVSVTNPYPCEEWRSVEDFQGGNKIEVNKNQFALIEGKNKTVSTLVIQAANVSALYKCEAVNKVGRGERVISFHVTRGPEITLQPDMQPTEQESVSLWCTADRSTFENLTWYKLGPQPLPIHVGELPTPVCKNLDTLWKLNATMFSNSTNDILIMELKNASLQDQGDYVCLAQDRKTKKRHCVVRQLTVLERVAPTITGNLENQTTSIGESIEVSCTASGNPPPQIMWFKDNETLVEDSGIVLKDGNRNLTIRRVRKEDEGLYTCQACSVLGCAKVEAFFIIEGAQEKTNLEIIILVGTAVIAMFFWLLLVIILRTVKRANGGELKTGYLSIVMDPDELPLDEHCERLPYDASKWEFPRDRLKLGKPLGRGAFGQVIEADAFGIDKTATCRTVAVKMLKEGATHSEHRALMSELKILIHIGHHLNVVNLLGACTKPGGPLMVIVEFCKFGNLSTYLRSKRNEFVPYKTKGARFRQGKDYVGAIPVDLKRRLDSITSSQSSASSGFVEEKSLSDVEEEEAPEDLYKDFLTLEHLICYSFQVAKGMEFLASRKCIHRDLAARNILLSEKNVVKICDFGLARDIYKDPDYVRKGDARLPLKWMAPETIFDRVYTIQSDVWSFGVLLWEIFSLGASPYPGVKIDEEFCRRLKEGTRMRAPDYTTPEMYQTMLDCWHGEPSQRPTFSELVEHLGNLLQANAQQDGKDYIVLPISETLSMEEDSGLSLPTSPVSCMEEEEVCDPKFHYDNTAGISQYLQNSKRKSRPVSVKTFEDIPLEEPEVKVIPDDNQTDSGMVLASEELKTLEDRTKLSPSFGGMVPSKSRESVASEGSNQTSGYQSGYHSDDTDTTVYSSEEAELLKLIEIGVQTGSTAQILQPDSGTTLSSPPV

For `Nc1cnc(-c2ccccc2F)nc1C(=O)Nc1cnccc1N1CCCC(O)(C(F)(F)F)C1` (stereo not drawn) [Example 166, 5-Amino-2-(2-fluoro-phenyl)-pyrimidine-4-carboxylic acid (3-hydroxy-3-trifluoromethyl-3,4,5,6-tetrahydro-2H-[1,4′]bi-pyridinyl-3′-yl)-amide], the IC50 was under 1 µM at Pim1 kinase (read-out: IC50 (μM) PIM1), under 1 µM at Pim2 kinase (read-out: IC50 (μM) PIM2), under 1 µM on Pim3 kinase (read-out: IC50 (μM) PIM3) and 10 to 25 µM against KDR kinase.
In the case of `N[C@H]1CCCN(c2ccncc2NC(=O)c2ccnc(-c3c(F)cccc3F)n2)C1` [Example 249, N-{4-[(3S)-3-aminopiperidin-1-yl]pyridin-3-yl}-2-(2,6-difluorophenyl)pyrimidine-4-carboxamide N-{4-[(3S)-3-aminopiperidin-1-yl]pyridin-3-yl}-2-(2,6-difluorophenyl)-pyrimidine-4-carboxamide], the IC50 on Pim1 kinase (read-out: IC50 (μM) PIM1) was under 1 µM; at Pim2 kinase (read-out: IC50 (μM) PIM2) it was under 1 µM; at Pim3 kinase (read-out: IC50 (μM) PIM3), under 1 µM; against KDR kinase, 10 to 25 µM.
As for `CC1(N)CCCN(c2ccncc2NC(=O)c2nc(-c3ccccc3)ncc2N)C1` (stereo not drawn) [Example 261, 5-Amino-2-phenyl-pyrimidine-4-carboxylic acid (3-amino-3-methyl-3,4,5,6-tetrahydro-2H-[1,4′]bipyridinyl-3′-yl)-amide], the IC50 at Pim1 kinase (read-out: IC50 (μM) PIM1) was under 1 µM; at Pim2 kinase (read-out: IC50 (μM) PIM2) it was under 1 µM; on Pim3 kinase (read-out: IC50 (μM) PIM3), under 1 µM; against KDR kinase, 1 to 10 µM.
Take `Nc1cc(-c2ccccc2)cnc1C(=O)Nc1cnccc1N1CCC[C@H](N)C1` [Example 264, 3-Amino-5-phenyl-pyridine-2-carboxylic acid (3-amino-3,4,5,6-tetrahydro-2H-[1,4′]bipyridinyl-3′-yl)-amide]: the IC50 on Pim1 kinase (read-out: IC50 (μM) PIM1), at Pim2 kinase (read-out: IC50 (μM) PIM2), at Pim3 kinase (read-out: IC50 (μM) PIM3) and at KDR kinase was under 1 µM throughout.
For `Nc1cnc(-c2ccccc2)nc1C(=O)Nc1cnccc1N1CCC[C@H](N)C1` [Example 265, 5-Amino-2-phenyl-pyrimidine-4-carboxylic acid (3-amino-3,4,5,6-tetrahydro-2H-[1,4′]bipyridinyl-3′-yl)-amide], the IC50 on Pim1 kinase (read-out: IC50 (μM) PIM1) was under 1 µM; on Pim2 kinase (read-out: IC50 (μM) PIM2), under 1 µM; on Pim3 kinase (read-out: IC50 (μM) PIM3), under 1 µM; against KDR kinase, 10 to 25 µM.
As to `Cc1nc(N)cc(-c2ccncc2NC(=O)c2nc(-c3ccccc3)ncc2N)n1` [Example 268, 5-Amino-2-phenyl-pyrimidine-4-carboxylic acid [4-(6-amino-2-methyl-pyrimidin-4-yl)-pyridin-3-yl]-amide], the IC50 on Pim1 kinase (read-out: IC50 (μM) PIM1) was under 1 µM; on Pim2 kinase (read-out: IC50 (μM) PIM2), under 1 µM; on Pim3 kinase (read-out: IC50 (μM) PIM3), under 1 µM; against KDR kinase, 1 to 10 µM.
Consider `CSc1nc(N)cc(-c2ccncc2NC(=O)c2nc(-c3c(F)cccc3F)ccc2N)n1` [Example 275, 3-Amino-6-(2,6-difluoro-phenyl)-pyridine-2-carboxylic acid [4-(6-amino-2-methylsulfanyl-pyrimidin-4-yl)-pyridin-3-yl]-amide], for which the IC50 is under 1 µM on Pim1 kinase (read-out: IC50 (μM) PIM1), under 1 µM on Pim2 kinase (read-out: IC50 (μM) PIM2), under 1 µM on Pim3 kinase (read-out: IC50 (μM) PIM3) and 10 to 25 µM on KDR kinase.
Take `Nc1ccc(-c2scc3c2OCCO3)nc1C(=O)Nc1cnccc1N1CCC[C@H](N)C1` [Example 447, 3-Amino-6-(2,3-dihydro-thieno[3,4-b][1,4]dioxin-5-yl)-pyridine-2-carboxylic acid (3-amino-3,4,5,6-tetrahydro-2H-[1,4′]bipyridinyl-3′-yl)-amide]: the IC50 on Pim1 kinase (read-out: IC50 (μM) PIM1) was under 1 µM; at Pim2 kinase (read-out: IC50 (μM) PIM2) it was under 1 µM; at Pim3 kinase (read-out: IC50 (μM) PIM3), under 1 µM; against KDR kinase it was 10 to 25 µM.
As to `N[C@H]1CCCN(c2ccncc2NC(=O)c2cccc(-c3ccccc3F)n2)C1` [Example 455, 6-(2-Fluoro-phenyl)-pyridine-2-carboxylic acid (3-amino-3,4,5,6-tetrahydro-2H-[1,4′]bipyridinyl-3′-yl)-amide], the 50% inhibitory concentration (IC50) is under 1 µM at Pim1 kinase (read-out: IC50 (μM) PIM1), under 1 µM on Pim2 kinase (read-out: IC50 (μM) PIM2), under 1 µM at Pim3 kinase (read-out: IC50 (μM) PIM3) and 10 to 25 µM at KDR kinase.
As to `N[C@H]1CCCN(c2ccncc2NC(=O)c2cccc(-c3ccccc3)n2)C1` [Example 487, 6-Phenyl-pyridine-2-carboxylic acid (3-amino-3,4,5,6-tetrahydro-2H-[1,4′]bipyridinyl-3′-yl)-amide], the IC50 at Pim1 kinase (read-out: IC50 (μM) PIM1) was under 1 µM; on Pim2 kinase (read-out: IC50 (μM) PIM2), under 1 µM; at Pim3 kinase (read-out: IC50 (μM) PIM3), under 1 µM; against KDR kinase it was 10 to 25 µM.
As for `Nc1cc(F)c(-c2c(F)ccc(OCc3ccccc3)c2F)nc1C(=O)Nc1cnccc1N1CCC[C@H](N)C1` [Example 505, 3-Amino-6-(3-benzyloxy-2,6-difluoro-phenyl)-5-fluoro-pyridine-2-carboxylic acid (3-amino-3,4,5,6-tetrahydro-2H-[1,4′]bipyridinyl-3′-yl)-amide], the IC50 on Pim1 kinase (read-out: IC50 (μM) PIM1) is under 1 µM; on Pim2 kinase (read-out: IC50 (μM) PIM2) it was under 1 µM; on Pim3 kinase (read-out: IC50 (μM) PIM3) it was under 1 µM; at KDR kinase, 10 to 25 µM.
For `Nc1ccc(-c2cnc(N)c(OCC(F)(F)F)n2)nc1C(=O)Nc1cnccc1N1CCC[C@H](N)C1` [Example 519, 3-Amino-6-[5-amino-6-(2,2,2-trifluoro-ethoxy)-pyrazin-2-yl]-pyridine-2-carboxylic acid (3-amino-3,4,5,6-tetrahydro-2H-[1,4′]bipyridinyl-3′-yl)-amide], the IC50 is under 1 µM on Pim1 kinase (read-out: IC50 (μM) PIM1), under 1 µM on Pim2 kinase (read-out: IC50 (μM) PIM2), under 1 µM on Pim3 kinase (read-out: IC50 (μM) PIM3) and 10 to 25 µM at KDR kinase.
With `Nc1ccc(-c2cncc(OCC3CC3)n2)nc1C(=O)Nc1cnccc1N1CCC[C@H](N)C1` [Example 521, 3-Amino-6-(6-cyclopropylmethoxy-pyrazin-2-yl)-pyridine-2-carboxylic acid (3-amino-3,4,5,6-tetrahydro-2H-[1,4′]bipyridinyl-3′-yl)-amide], the IC50 on Pim1 kinase (read-out: IC50 (μM) PIM1) was under 1 µM; on Pim2 kinase (read-out: IC50 (μM) PIM2), under 1 µM; on Pim3 kinase (read-out: IC50 (μM) PIM3) it was under 1 µM; at KDR kinase it was 1 to 10 µM.
Regarding `Nc1ccc(-c2cncc(O)n2)nc1C(=O)Nc1cnccc1N1CCC[C@H](N)C1` [Example 522, 3-Amino-6-(6-hydroxy-pyrazin-2-yl)-pyridine-2-carboxylic acid (3-amino-3,4,5,6-tetrahydro-2H-[1,4′]bipyridinyl-3′-yl)-amide], the IC50 at Pim1 kinase (read-out: IC50 (μM) PIM1) is under 1 µM; at Pim2 kinase (read-out: IC50 (μM) PIM2), under 1 µM; on Pim3 kinase (read-out: IC50 (μM) PIM3), under 1 µM; on KDR kinase, 1 to 10 µM.
`CC(C)COc1cncc(-c2ccc(N)c(C(=O)Nc3cnccc3N3CCC[C@H](N)C3)n2)n1` [Example 523, 3-Amino-6-(6-isobutoxy-pyrazin-2-yl)-pyridine-2-carboxylic acid (3-amino-3,4,5,6-tetrahydro-2H-[1,4′]bipyridinyl-3′-yl)-amide]: the IC50 was under 1 µM on Pim1 kinase (read-out: IC50 (μM) PIM1), under 1 µM at Pim2 kinase (read-out: IC50 (μM) PIM2), under 1 µM at Pim3 kinase (read-out: IC50 (μM) PIM3) and 10 to 25 µM against KDR kinase.
As to `Nc1ccc(-c2ccccc2)nc1C(=O)Nc1cnccc1N1CCC[C@H](N)C1` [Example 524, 3-Amino-6-phenyl-pyridine-2-carboxylic acid (3-amino-3,4,5,6-tetrahydro-2H-[1,4′]bipyridinyl-3′-yl)-amide], the IC50 is under 1 µM at Pim1 kinase (read-out: IC50 (μM) PIM1), under 1 µM at Pim2 kinase (read-out: IC50 (μM) PIM2), under 1 µM on Pim3 kinase (read-out: IC50 (μM) PIM3) and 1 to 10 µM against KDR kinase.
On to `CSc1nc(N)cc(-c2ccncc2NC(=O)c2nc(-c3cc(C(=O)NC(C)C)ccc3F)ccc2N)n1` [Example 534, 3-Amino-6-(2-fluoro-5-isopropylcarbamoyl-phenyl)-pyridine-2-carboxylic acid [4-(6-amino-2-methylsulfanyl-pyrimidin-4-yl)-pyridin-3-yl]-amide], for which the IC50 is under 1 µM on Pim1 kinase (read-out: IC50 (μM) PIM1), under 1 µM at Pim2 kinase (read-out: IC50 (μM) PIM2), under 1 µM on Pim3 kinase (read-out: IC50 (μM) PIM3) and 1 to 10 µM at KDR kinase.
For `CSc1nc(N)cc(-c2ccncc2NC(=O)c2nc(-c3cc(C(=O)N(C)C)ccc3F)ccc2N)n1` [Example 535, 3-Amino-6-(5-dimethylcarbamoyl-2-fluoro-phenyl)-pyridine-2-carboxylic acid [4-(6-amino-2-methylsulfanyl-pyrimidin-4-yl)-pyridin-3-yl]-amide], the IC50 was under 1 µM on Pim1 kinase (read-out: PIM1 IC50), under 1 µM at Pim2 kinase (read-out: PIM2 IC50), under 1 µM at Pim3 kinase (read-out: PIM3 IC50) and 10 to 25 µM at KDR kinase.
With `Cc1cc(-c2ccncc2NC(=O)c2nc(-c3c(F)ccc(OC(C)C)c3F)ccc2N)cc(N)n1` [Example 538, 3-Amino-6-(2,6-difluoro-3-isopropoxy-phenyl)-pyridine-2-carboxylic acid (2′-amino-6′-methyl-[4,4′]bipyridinyl-3-yl)-amide], the IC50 at Pim1 kinase (read-out: PIM1 IC50) is under 1 µM; on Pim2 kinase (read-out: PIM2 IC50) it was under 1 µM; at Pim3 kinase (read-out: PIM3 IC50), under 1 µM; at KDR kinase, 10 to 25 µM.
`CC(C)NC(=O)c1ccc(F)c(-c2ncc(N)c(C(=O)Nc3cnccc3N3CCC[C@H](N)C3)n2)c1` [Example 542, 5-Amino-2-(2-fluoro-5-isopropylcarbamoyl-phenyl)-pyrimidine-4-carboxylic acid (3-amino-3,4,5,6-tetrahydro-2H-[1,4′]bipyridinyl-3′-yl)-amide]: the IC50 is under 1 µM at Pim1 kinase (read-out: PIM1 IC50), under 1 µM on Pim2 kinase (read-out: PIM2 IC50), under 1 µM on Pim3 kinase (read-out: PIM3 IC50) and 10 to 25 µM against KDR kinase.
As for `Cc1ccc(F)c(-c2ncc(N)c(C(=O)Nc3cnccc3N3CCC[C@H](N)C3)n2)c1` [Example 543, 5-Amino-2-(2-fluoro-5-methyl-phenyl)-pyrimidine-4-carboxylic acid (3-amino-3,4,5,6-tetrahydro-2H-[1,4′]bipyridinyl-3′-yl)-amide], the IC50 at Pim1 kinase (read-out: PIM1 IC50) was under 1 µM; at Pim2 kinase (read-out: PIM2 IC50), under 1 µM; on Pim3 kinase (read-out: PIM3 IC50), under 1 µM; against KDR kinase, 10 to 25 µM.
